{"source": "ChEMBL document CHEMBL4825728", "about": "“Development of succinimide-based inhibitors for the mitochondrial rhomboid protease PARL” (Bioorg Med Chem Lett, 2021)", "key": {"[1]": {"test": "Solubility of the compound in HEK-293T cell membrane transfected with FLAG-tagged human PARL", "format": "ADME, cell membranes"}, "[2]": {"molecular_target": "T1, Presenilin-associated rhomboid-like protein, mitochondrial (Homo sapiens) (UniProt Q9H300)", "T1 sequence (whole entry)": "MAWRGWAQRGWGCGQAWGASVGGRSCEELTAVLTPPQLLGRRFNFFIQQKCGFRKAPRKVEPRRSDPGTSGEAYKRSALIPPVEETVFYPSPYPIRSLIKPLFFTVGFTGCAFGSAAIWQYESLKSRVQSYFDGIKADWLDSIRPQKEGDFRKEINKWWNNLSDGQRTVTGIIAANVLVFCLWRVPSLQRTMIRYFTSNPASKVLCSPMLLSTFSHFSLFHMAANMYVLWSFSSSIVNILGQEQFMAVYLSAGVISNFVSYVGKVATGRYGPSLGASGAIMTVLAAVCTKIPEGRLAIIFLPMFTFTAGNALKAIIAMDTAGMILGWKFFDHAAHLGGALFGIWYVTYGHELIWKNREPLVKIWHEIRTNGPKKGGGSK", "test": "Inhibition of FLAG-tagged human PARL transfected in HEK293T cell membrane assessed as inhibition of FP-Rh labeling at 200 uM treated with compound prior to FP-Rh addition by competitive ABPP based analysis", "format": "cell membranes"}, "[3]": {"molecular_target": "T2, Rhomboid protease GlpG (Escherichia coli (strain K12)) (UniProt P09391)", "T2 sequence (whole entry)": "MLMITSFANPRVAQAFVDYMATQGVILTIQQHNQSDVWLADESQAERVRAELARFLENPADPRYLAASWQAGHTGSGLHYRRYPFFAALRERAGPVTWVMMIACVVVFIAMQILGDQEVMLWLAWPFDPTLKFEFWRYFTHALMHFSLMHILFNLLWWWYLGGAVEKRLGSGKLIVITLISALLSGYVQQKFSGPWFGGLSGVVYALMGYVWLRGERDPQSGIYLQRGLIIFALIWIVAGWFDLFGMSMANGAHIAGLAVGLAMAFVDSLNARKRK", "test": "Inhibition of GlpG in Escherichia coli BL21 assessed as inhibition of FP-Rh labeling at 200 uM treated with compound prior to FP-Rh addition by competitive ABPP based analysis"}, "[4]": {"molecular_target": "T1, Presenilin-associated rhomboid-like protein, mitochondrial (Homo sapiens)", "test": "Inhibition of FLAG-tagged human PARL transfected in HEK293T cell membrane assessed as inhibition of FP-Rh labeling at 100 uM incubated for 24 hrs followed by cells washing and lysis prior to FP-Rh labeling by In situ based analysis", "format": "cell membranes"}, "[5]": {"molecular_target": "T3, Presenilin-associated rhomboid-like protein, mitochondrial (Homo sapiens, UniProt Q9H300)", "T3 sequence (Q9H300 whole entry)": "T1 sequence (whole entry)", "test": "Inhibition of human PARL transfected in HEK293T cell membrane assessed as inhibition of FP-Rh labeling treated with compound for 30 mins prior to FP-Rh addition by competitive ABPP based analysis", "format": "cell membranes"}, "Rhomboid protease GlpG": {"molecular_target": "T4, Rhomboid protease GlpG (Escherichia coli (strain K12), UniProt P09391)", "T4 sequence (P09391 whole entry)": "T2 sequence (whole entry)", "test": "Inhibition of GlpG in Escherichia coli BL21 assessed as inhibition of FP-Rh labeling treated with compound for 30 mins prior to FP-Rh addition by competitive ABPP based analysis"}, "[6]": {"molecular_target": "T1, Presenilin-associated rhomboid-like protein, mitochondrial (Homo sapiens)", "test": "Inhibition of FLAG-tagged human PARL transfected in HEK293T cell membrane assessed as inhibition of FP-Rh labeling at 100 uM incubated for 8 hrs followed by cells washing and lysis prior to FP-Rh labeling by In situ based analysis", "format": "cell membranes"}, "[7]": {"molecular_target": "T1, Presenilin-associated rhomboid-like protein, mitochondrial (Homo sapiens)", "test": "Reversible inhibition of FLAG-tagged human PARL transfected in HEK293T cell membrane assessed as FP-Rh labeling at 200 uM treated with compound followed by gel filtration and later incubated for 4 hrs prior to FP-Rh labeling by western blot analysis", "format": "cell membranes"}, "[8]": {"molecular_target": "T1, Presenilin-associated rhomboid-like protein, mitochondrial (Homo sapiens)", "test": "Reversible inhibition of FLAG-tagged human PARL transfected in HEK293T cell membrane assessed as FP-Rh labeling at 200 uM treated with compound followed by gel filtration and later incubated for 4 hrs prior to FP-Rh labeling by competitive ABPP based analysis", "format": "cell membranes", "set-up": "Activity: scale not given: the % may be the effect or the level left"}}, "note": "The source made the active and inactive calls. No cut-off for these calls is given here."}
{"smiles": "O=C1c2ccccc2C(=O)N1OS(=O)(=O)c1ccc(-c2ccccc2)cc1", "values": [{"measurement": "solubility", "setting": "[1]", "value": "Soluble"}]}
{"smiles": "COc1ccc(S(=O)(=O)N2C(=O)c3ccccc3C2=O)cc1", "values": [{"measurement": "solubility", "setting": "[1]", "value": "Soluble"}]}
{"smiles": "CC(C)S(=O)(=O)N1C(=O)c2ccccc2C1=O", "values": [{"measurement": "solubility", "setting": "[1]", "value": "Soluble"}]}
{"smiles": "O=C1c2ccccc2C(=O)N1S(=O)(=O)c1ccc(-c2ccccc2)cc1", "values": [{"measurement": "solubility", "setting": "[1]", "value": "Soluble"}]}
{"smiles": "Cc1ccc(S(=O)(=O)N[C@@H](Cc2ccccc2)C(=O)CCl)cc1", "values": [{"measurement": "inhibition", "setting": "[2]", "value": "inactive"}, {"measurement": "inhibition", "setting": "[3]", "value": "inactive"}]}
{"smiles": "O=C1c2ccccc2C(=O)N1S(=O)(=O)c1ccccc1", "values": [{"measurement": "solubility", "setting": "[1]", "value": "Soluble"}]}
{"smiles": "O=C1CCC(=O)N1S(=O)(=O)c1ccc2ccccc2c1", "values": [{"measurement": "solubility", "setting": "[1]", "value": "Soluble"}]}
{"smiles": "O=C1CCC(=O)N1S(=O)(=O)c1ccc([N+](=O)[O-])cc1", "values": [{"measurement": "solubility", "setting": "[1]", "value": "Soluble"}, {"measurement": "inhibition", "setting": "[4]", "value": "inactive"}, {"measurement": "IC50", "setting": "[5]", "value": 0.9, "unit": "µM"}, {"measurement": "IC50", "setting": "Rhomboid protease GlpG", "value": 310, "unit": "µM"}, {"measurement": "inhibition", "setting": "[6]", "value": "Active"}]}
{"smiles": "COc1ccc(S(=O)(=O)ON2C(=O)c3ccccc3C2=O)cc1", "values": [{"measurement": "solubility", "setting": "[1]", "value": "Soluble"}]}
{"smiles": "CS(=O)(=O)N1C(=O)c2ccccc2C1=O", "values": [{"measurement": "solubility", "setting": "[1]", "value": "Soluble"}]}
{"smiles": "CS(=O)(=O)ON1C(=O)CCC1=O", "values": [{"measurement": "solubility", "setting": "[1]", "value": "Soluble"}]}
{"smiles": "COc1ccc(S(=O)(=O)N2C(=O)CCC2=O)cc1", "values": [{"measurement": "solubility", "setting": "[1]", "value": "Soluble"}]}
{"smiles": "O=C1c2ccccc2C(=O)N1OS(=O)(=O)c1ccc([N+](=O)[O-])cc1", "values": [{"measurement": "solubility", "setting": "[1]", "value": "Soluble"}]}
{"smiles": "O=S(=O)(F)Cc1ccccc1", "values": [{"measurement": "inhibition", "setting": "[2]", "value": "inactive"}, {"measurement": "inhibition", "setting": "[3]", "value": "inactive"}]}
{"smiles": "O=C1c2ccccc2C(=O)N1OS(=O)(=O)c1ccccc1", "values": [{"measurement": "solubility", "setting": "[1]", "value": "Soluble"}]}
{"smiles": "O=C1CCC(=O)N1OS(=O)(=O)c1ccccc1", "values": [{"measurement": "solubility", "setting": "[1]", "value": "Soluble"}, {"measurement": "inhibition", "setting": "[4]", "value": "inactive"}, {"measurement": "inhibition", "setting": "[7]", "value": "Active"}, {"measurement": "inhibition", "setting": "[8]", "value": "Active"}, {"measurement": "IC50", "setting": "[5]", "value": 20, "unit": "µM"}, {"measurement": "IC50", "setting": "Rhomboid protease GlpG", "value": 120, "unit": "µM"}, {"measurement": "inhibition", "setting": "[6]", "value": "> 50", "unit": "%"}]}
{"smiles": "O=C1c2ccccc2C(=O)N1S(=O)(=O)c1ccc([N+](=O)[O-])cc1", "values": [{"measurement": "solubility", "setting": "[1]", "value": "Soluble"}]}
{"smiles": "O=c1oc(Cl)c(Cl)c2ccccc12", "values": [{"measurement": "inhibition", "setting": "[2]", "value": "Active"}, {"measurement": "inhibition", "setting": "[3]", "value": "Active"}]}
{"smiles": "O=C1CCC(=O)N1S(=O)(=O)c1ccc(-c2ccccc2)cc1", "values": [{"measurement": "solubility", "setting": "[1]", "value": "Soluble"}, {"measurement": "IC50", "setting": "[5]", "value": 0.7, "unit": "µM"}, {"measurement": "IC50", "setting": "Rhomboid protease GlpG", "value": 68, "unit": "µM"}]}
{"smiles": "O=C1CCC(=O)N1OS(=O)(=O)c1ccc(-c2ccccc2)cc1", "values": [{"measurement": "solubility", "setting": "[1]", "value": "Soluble"}, {"measurement": "IC50", "setting": "[5]", "value": 1.9, "unit": "µM"}, {"measurement": "IC50", "setting": "Rhomboid protease GlpG", "value": 26, "unit": "µM"}]}
{"smiles": "NCCc1ccc(S(=O)(=O)F)cc1", "values": [{"measurement": "inhibition", "setting": "[2]", "value": "inactive"}, {"measurement": "inhibition", "setting": "[3]", "value": "inactive"}]}
{"smiles": "CS(=O)(=O)ON1C(=O)c2ccccc2C1=O", "values": [{"measurement": "solubility", "setting": "[1]", "value": "Soluble"}]}
{"smiles": "O=C1CCC(=O)N1S(=O)(=O)c1ccccc1", "values": [{"measurement": "solubility", "setting": "[1]", "value": "Soluble"}, {"measurement": "inhibition", "setting": "[4]", "value": "inactive"}, {"measurement": "inhibition", "setting": "[8]", "value": "Active"}, {"measurement": "IC50", "setting": "[5]", "value": 4.3, "unit": "µM"}, {"measurement": "IC50", "setting": "Rhomboid protease GlpG", "value": "> 1000", "unit": "µM"}]}
{"smiles": "O=C(OCN1C(=O)c2ccccc2S1(=O)=O)c1ccccc1Cl", "values": [{"measurement": "inhibition", "setting": "[2]", "value": 100, "unit": "%"}, {"measurement": "inhibition", "setting": "[3]", "value": 100, "unit": "%"}, {"measurement": "inhibition", "setting": "[4]", "value": "inactive"}, {"measurement": "Activity", "setting": "[8]", "value": 20, "unit": "%"}, {"measurement": "IC50", "setting": "[5]", "value": 8.8, "unit": "µM"}, {"measurement": "IC50", "setting": "Rhomboid protease GlpG", "value": 2.8, "unit": "µM"}, {"measurement": "inhibition", "setting": "[6]", "value": "> 50", "unit": "%"}]}
{"smiles": "O=C1CCC(=O)N1OS(=O)(=O)c1ccc([N+](=O)[O-])cc1", "values": [{"measurement": "solubility", "setting": "[1]", "value": "Soluble"}]}
{"smiles": "O=C1c2ccccc2C(=O)N1S(=O)(=O)c1ccc2ccccc2c1", "values": [{"measurement": "solubility", "setting": "[1]", "value": "Soluble"}]}
{"smiles": "O=C1c2ccccc2C(=O)N1OS(=O)(=O)c1ccc2ccccc2c1", "values": [{"measurement": "solubility", "setting": "[1]", "value": "Soluble"}]}
{"smiles": "CC(C)S(=O)(=O)ON1C(=O)c2ccccc2C1=O", "values": [{"measurement": "solubility", "setting": "[1]", "value": "Soluble"}]}
{"smiles": "CS(=O)(=O)N1C(=O)CCC1=O", "values": [{"measurement": "solubility", "setting": "[1]", "value": "Soluble"}]}
{"smiles": "CC(C)S(=O)(=O)ON1C(=O)CCC1=O", "values": [{"measurement": "solubility", "setting": "[1]", "value": "Soluble"}]}
{"smiles": "COc1ccc(S(=O)(=O)ON2C(=O)CCC2=O)cc1", "values": [{"measurement": "solubility", "setting": "[1]", "value": "Soluble"}]}
{"smiles": "CC(C)S(=O)(=O)N1C(=O)CCC1=O", "values": [{"measurement": "solubility", "setting": "[1]", "value": "Soluble"}]}
{"smiles": "O=C1CCC(=O)N1OS(=O)(=O)c1ccc2ccccc2c1", "values": [{"measurement": "solubility", "setting": "[1]", "value": "Soluble"}]}
